The subject of assay [1] is GH release. The experiment in a line: In vivo GH release after subcutaneous administration. Particulars: rat, s.c. How it is done:
Blood samples are taken from the jugular vein; 5, 15 and 30 minutes or only 15 and 30 minutes after the injection. The blood samples are centrifuged, plasma is removed and the GH level is measured by ELISA. The results are summarized in terms of potency in Table 9.

For assay [2], the target named is T1, GHRH receptor (Homo sapiens, UniProt Q02643).
T1 construct: Normal human pituitaries were purchased from the National Hormone and Peptide Program; tissue National Hormone and Peptide Program (A. F. Parlow); host or cells: normal human pituitary, membrane fraction
T1 sequence (Q02643 23-423): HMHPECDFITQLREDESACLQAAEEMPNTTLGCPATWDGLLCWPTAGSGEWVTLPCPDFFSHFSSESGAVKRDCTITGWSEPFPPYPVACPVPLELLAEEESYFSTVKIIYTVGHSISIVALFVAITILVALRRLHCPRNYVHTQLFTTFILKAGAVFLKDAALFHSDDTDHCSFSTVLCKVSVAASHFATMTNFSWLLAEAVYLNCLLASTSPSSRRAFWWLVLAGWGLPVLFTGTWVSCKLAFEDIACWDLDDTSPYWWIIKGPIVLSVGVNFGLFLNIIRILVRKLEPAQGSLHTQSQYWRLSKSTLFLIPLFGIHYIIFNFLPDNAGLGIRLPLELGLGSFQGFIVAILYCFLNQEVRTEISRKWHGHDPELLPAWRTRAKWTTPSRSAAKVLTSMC
The experiment in a line: GHRH receptor binding, 125I-labeled JV-1-42 ligand competition, human pituitary membrane homogenates (Table 7). Particulars: 125I-labeled JV-1-42, human pituitary membranes. Here is the method:
Preparation of human pituitary membrane fraction and receptor binding of GHRH agonists were performed as previously described, by using a sensitive in vitro ligand competition assay based on binding of ^125I-labeled JV-1-42 to human pituitary membrane homogenates. Normal human pituitaries were purchased from the National Hormone and Peptide Program (A. F. Parlow, Los Angeles, County Harbor-UCLA Medical Center, Torrance, Calif.).

Entries after “also recorded” stand apart in the source; their conditions may differ. Square brackets hold non-standard residues; d marks the D form. Peptide text beside a SMILES is read from it. * marks the point of attachment. Desaminotyrosyl = O=C(CCc1ccc(O)cc1)*; NMeY = CN[C@@H](Cc1ccc(O)cc1)C(=O)O; Agmatine = N=C(N)NCCCCN*; Nle = CCCC[C@H](N)C(=O)O; Orn = NCCC[C@H](N)C(=O)O; Abu = CC[C@H](N)C(=O)O; Ava = NCCCCC(=O)O; GABA = NCCCC(=O)O

What is called IC50 is the midpoint of a concentration-inhibition curve. A higher IC50 goes with weaker potency in that assay.

For `CCCC[C@H](NC(=O)[C@@H](NC(=O)[C@H](CC(=O)O)NC(=O)[C@H](CCC(N)=O)NC(=O)[C@H](CC(C)C)NC(=O)[C@H](CC(C)C)NC(=O)[C@H](CCCN)NC(=O)[C@H](CCCNC(=N)N)NC(=O)[C@H](C)NC(=O)[C@H](CO)NC(=O)[C@H](CC(C)C)NC(=O)[C@H](CCC(N)=O)NC(=O)[C@H](CC)NC(=O)[C@H](CC(C)C)NC(=O)[C@@H](NC(=O)[C@H](CCCN)NC(=O)[C@H](CCCNC(=N)N)NC(=O)[C@H](Cc1ccc(O)cc1)NC(=O)[C@H](CO)NC(=O)[C@H](CCC(N)=O)NC(=O)[C@@H](NC(=O)[C@H](Cc1ccccc1)NC(=O)[C@@H](NC(=O)[C@H](C)NC(=O)[C@H](CC(=O)O)NC(=O)[C@@H](C)NC(=O)CCc1ccc(O)cc1)[C@@H](C)CC)[C@@H](C)O)C(C)C)[C@@H](C)CC)C(=O)N[C@@H](CC(=O)O)C(=O)NCCCCNC(=N)N` [Peptide P-20350, [Dat^1, D-Ala^2, Gln^8, Orn^12, Abu^15, Orn^21, Nle^27, Asp^28, Agm^29]hGH-RH(1-29)] (Desaminotyrosyl-[dA]DAIFTQSYR[Orn]VL[Abu]QLSAR[Orn]LLQDI[Nle]D-Agmatine), the “GH response after subcutaneous administration (in words)” value in assay [1] is listed as “unusually high responses; also recorded: especially greater growth hormone levels than hGH-RH or JI-38”.

Compound `CCCC[C@H](NC(=O)[C@@H](NC(=O)[C@H](CC(=O)O)NC(=O)[C@H](CCC(N)=O)NC(=O)[C@H](CC(C)C)NC(=O)[C@H](CC(C)C)NC(=O)[C@H](CCCN)NC(=O)[C@H](CCCNC(=N)N)NC(=O)[C@H](C)NC(=O)[C@H](CO)NC(=O)[C@H](CC(C)C)NC(=O)[C@H](CCC(N)=O)NC(=O)[C@H](CC)NC(=O)[C@H](CC(C)C)NC(=O)[C@@H](NC(=O)[C@H](CCCN)NC(=O)[C@H](CCCNC(=N)N)NC(=O)[C@H](Cc1ccc(O)cc1)NC(=O)[C@H](CO)NC(=O)[C@H](CCC(N)=O)NC(=O)[C@@H](NC(=O)[C@H](Cc1ccccc1)NC(=O)[C@@H](NC(=O)[C@H](C)NC(=O)[C@H](CC(=O)O)NC(=O)[C@@H](C)NC(=O)[C@H](Cc1ccc(O)cc1)NC)[C@@H](C)CC)[C@@H](C)O)C(C)C)[C@@H](C)CC)C(=O)N[C@@H](CC(=O)O)C(=O)N[C@@H](CCCNC(=N)N)C(=O)NCCCCC(N)=O` [Peptide P-22326, [N—Me-Tyr^1, D-Ala^2, Gln^8, Orn^12, Abu^15, Orn^21, Nle^27, Asp^28, Apa^30]hGH-RH(1-30)NH2] (H-[NMeY][dA]DAIFTQSYR[Orn]VL[Abu]QLSAR[Orn]LLQDI[Nle]DR[Ava]-NH2) showed an IC50 in assay [2] of 0.71 nM. Moreover, the “GH response after subcutaneous administration (in words)” value in assay [1] was “unusually high responses; also recorded: especially greater growth hormone levels than hGH-RH or JI-38”.

Consider `CCCC[C@H](NC(=O)[C@@H](NC(=O)[C@H](CC(=O)O)NC(=O)[C@H](CCC(N)=O)NC(=O)[C@H](CC(C)C)NC(=O)[C@H](CC(C)C)NC(=O)[C@H](CCCN)NC(=O)[C@H](CCCNC(=N)N)NC(=O)[C@H](C)NC(=O)[C@H](CO)NC(=O)[C@H](CC(C)C)NC(=O)[C@H](CCC(N)=O)NC(=O)[C@H](CC)NC(=O)[C@H](CC(C)C)NC(=O)[C@@H](NC(=O)[C@H](CCCN)NC(=O)[C@H](CCCNC(=N)N)NC(=O)[C@H](Cc1ccc(O)cc1)NC(=O)[C@H](CO)NC(=O)[C@H](CC(N)=O)NC(=O)[C@@H](NC(=O)[C@H](Cc1ccccc1)NC(=O)[C@@H](NC(=O)[C@H](C)NC(=O)[C@H](CC(=O)O)NC(=O)[C@@H](C)NC(=O)CCc1ccc(O)cc1)[C@@H](C)CC)[C@@H](C)O)C(C)C)[C@@H](C)CC)C(=O)N[C@@H](CO)C(=O)N[C@@H](CCCNC(=N)N)C(=O)N[C@@H](CCC(N)=O)C(=O)NCCCC(N)=O` [Peptide P-29702, [Dat^1, D-Ala^2, Orn^12, Abu^15, Orn^21, Nle^27, Gln-Gab^30]hGH-RH(1-30)NH2] (Desaminotyrosyl-[dA]DAIFTNSYR[Orn]VL[Abu]QLSAR[Orn]LLQDI[Nle]SRQ[GABA]-NH2), for which the IC50 in assay [2] is 0.86 nM.
